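Compound exposure: 48 hours, 5 concentrations, 96-well plates. GI50 = concentration required for 50% inhibition of growth.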 Active and inactive are the calls of the source. Rule as the data show it: active = GI50 up to about 1.1 µM and inactive = higher.
Experiments:
Assay in all cases: NCI anticancer screen, dose series, 48 h
RXF 393 = system: RXF 393
A498 = system: A498
SK-MEL-2 = system: SK-MEL-2
IGROV-1 = system: IGROV-1
SW-620 = system: SW-620
MDA-MB-231 = system: MDA-MB-231
SK-MEL-28 = system: SK-MEL-28
NCI-H226 = system: NCI-H226
SF-295 = system: SF-295
LOX IMVI = system: LOX IMVI
HOP-92 = system: HOP-92
HCT-116 = system: HCT-116
SF-268 = system: SF-268
HT-29 = system: HT-29
M14 = system: M14
OVCAR-8 = system: OVCAR-8
U-251 = system: U-251
SR = system: SR
HOP-62 = system: HOP-62

Measured: GI50

CC(C)(C)n1c(=O)n2c(-c3ccccc3)c(-c3ccccc3)n2c1=O
inactive: RXF 393 76 µM | A498 > 100 µM | SK-MEL-2 28.8 µM | IGROV-1 > 100 µM | SW-620 > 100 µM | MDA-MB-231 > 100 µM | SK-MEL-28 > 100 µM | NCI-H226 > 100 µM | SF-295 > 100 µM | LOX IMVI 68.4 µM | HOP-92 > 100 µM | HCT-116 25.4 µM | SF-268 > 100 µM | HT-29 66.7 µM | M14 37 µM | OVCAR-8 > 100 µM | U-251 > 100 µM

CCN(CC)CCn1c(C(C)(C)C)nc2ccccc21
inactive: SR > 100 µM | RXF 393 > 100 µM | IGROV-1 > 100 µM | SW-620 > 100 µM | HOP-62 > 100 µM | SK-MEL-28 > 100 µM | NCI-H226 > 100 µM | SF-295 > 100 µM | HOP-92 > 100 µM | HCT-116 > 100 µM | SF-268 > 100 µM | HT-29 > 100 µM | M14 > 100 µM | OVCAR-8 > 100 µM | U-251 30.7 µM

CCOC(=O)c1c(-c2ccc(OC)c(O)c2)c(C#N)c(=S)n(C2OC(CO)C(O)C(O)C2O)c1-c1ccccc1 (stereo not given)
inactive: SR > 100 µM | RXF 393 > 100 µM | A498 > 100 µM | IGROV-1 > 100 µM | SW-620 > 100 µM | HOP-62 > 100 µM | SK-MEL-28 > 100 µM | NCI-H226 > 100 µM | SF-295 > 100 µM | LOX IMVI > 100 µM | HCT-116 > 100 µM | SF-268 > 100 µM | HT-29 > 100 µM | M14 > 100 µM | U-251 > 100 µM

CC12C(=O)CC(CC1=O)C2(C)C
inactive: SK-MEL-2 > 100 µM | IGROV-1 > 100 µM | SW-620 > 100 µM | HOP-62 > 100 µM | SK-MEL-28 > 100 µM | NCI-H226 > 100 µM | SF-295 > 100 µM | LOX IMVI > 100 µM | HOP-92 > 100 µM | HCT-116 > 100 µM | SF-268 > 100 µM | HT-29 > 100 µM | M14 > 100 µM | OVCAR-8 > 100 µM

COc1ccc2c(c1)C/C(=C\c1ccc(O)c(OC)c1)C2=O
inactive: SR > 100 µM | A498 > 100 µM | IGROV-1 > 10 µM | SW-620 > 100 µM | SK-MEL-28 > 100 µM | NCI-H226 > 100 µM | LOX IMVI > 100 µM | SF-268 > 100 µM | HT-29 > 100 µM | M14 > 100 µM | OVCAR-8 > 100 µM | U-251 > 100 µM

CC(C)c1cccc(C(C)C)c1NC(=O)C(=O)C(C(=O)c1ccccc1-c1ccccc1)C1OC(=O)c2ccccc21 (stereo not given)
inactive: SR 22.6 µM | RXF 393 12.9 µM | SK-MEL-2 14.9 µM | IGROV-1 24.3 µM | SW-620 19.9 µM | SK-MEL-28 20.1 µM | NCI-H226 > 10 µM | SF-295 16.6 µM | LOX IMVI 14.2 µM | HCT-116 24.9 µM | SF-268 21.7 µM | HT-29 17.9 µM | OVCAR-8 13.7 µM | U-251 12.8 µM

CCN(CC)C(=O)C(C)n1cc(C)c(=O)[nH]c1=O (stereo not given)
inactive: RXF 393 > 100 µM | SK-MEL-2 > 100 µM | IGROV-1 > 100 µM | SW-620 > 100 µM | HOP-62 > 100 µM | SK-MEL-28 > 100 µM | SF-295 > 100 µM | LOX IMVI > 100 µM | HCT-116 > 100 µM | SF-268 > 100 µM | HT-29 > 100 µM | M14 > 100 µM | OVCAR-8 > 100 µM | U-251 > 100 µM

O=S1(=O)OCc2ccccc21
inactive: RXF 393 > 100 µM | A498 37.5 µM | SK-MEL-2 > 100 µM | IGROV-1 > 100 µM | SW-620 85.7 µM | HOP-62 10.2 µM | MDA-MB-231 20.8 µM | SK-MEL-28 > 100 µM | NCI-H226 97.5 µM | SF-295 > 100 µM | HOP-92 > 100 µM | HCT-116 37.3 µM | SF-268 > 100 µM | HT-29 > 100 µM | M14 > 100 µM | OVCAR-8 > 100 µM | U-251 > 100 µM

COc1cc2c(cc1C)NC(=O)/C2=C/c1c(Cl)n(C)c2ccccc12
inactive: RXF 393 4.1 µM | A498 5.86 µM | SK-MEL-2 9.66 µM | IGROV-1 3.81 µM | SW-620 3.05 µM | HOP-62 11.1 µM | MDA-MB-231 12.9 µM | SK-MEL-28 13 µM | NCI-H226 4.53 µM | SF-295 7.66 µM | LOX IMVI 7.69 µM | HCT-116 5.46 µM | SF-268 4.48 µM | HT-29 6.08 µM | M14 10.6 µM | OVCAR-8 12.5 µM | U-251 10 µM
